BindingDB's records for patent US10660876 (Achillion Pharmaceuticals, 2020)

Each molecule was assayed against Complement factor D (Homo sapiens, UniProt P00746) (assay: Inhibition Assay).
Protocol: Human Factor D (purified from human serum, Complement Technology, Inc.) at 80 nM final concentration is incubated with test compound at various concentrations for 5 minutes at room temperature in 50 mM Tris, 1M NaCl, pH 7.5. A synthetic substrate Z-L-Lys-SBzl and DTNB (Ellman's reagent) are added to final concentrations of 100 µM each. Absorbance at 405 nm (A405) is recorded at 30 second intervals for 30 minutes using a microplate spectrophotometer. IC50 values are calculated by nonlinear regression of complement Factor D reaction rates as a function of test compound concentration.

Complement factor D, sequence (P00746 whole entry): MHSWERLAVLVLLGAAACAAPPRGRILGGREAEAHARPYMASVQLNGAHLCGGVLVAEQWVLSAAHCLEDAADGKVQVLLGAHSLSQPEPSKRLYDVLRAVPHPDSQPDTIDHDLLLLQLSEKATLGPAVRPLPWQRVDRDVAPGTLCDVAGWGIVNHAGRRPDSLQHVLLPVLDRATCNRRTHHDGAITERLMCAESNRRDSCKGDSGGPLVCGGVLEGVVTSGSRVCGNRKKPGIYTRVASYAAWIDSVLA

| Compound | IC50 |
| --- | --- |
| CC(=O)c1cn(CC(=O)N2C[C@H](F)C[C@H]2C(=O)NCc2cccc(Cl)c2F)c2cc(N(CC(=O)N3C[C@H](F)C[C@H]3C(=O)NCc3cccc(Cl)c3F)S(C)(=O)=O)ccc12 [US10660876, Cmpd No. 1] | in the range around 5.5 µM |
| CC(=O)c1cn(CC(=O)N2C[C@H](F)C[C@H]2C(=O)NCc2nc3ccccc3s2)c2ccc(Nc3cncnc3)cc12 [US10660876, Cmpd No. 16] | in the range around 5.5 µM |
| CNC(=O)[C@@H]1C[C@@H](F)CN1C(=O)Cn1cc(C(C)=O)c2cc(Nc3cncnc3)ccc21 [US10660876, Cmpd No. 20] | in the range around 5.5 µM |
| CC(=O)c1cn(CC(=O)N2C[C@H](F)C[C@H]2C(=O)Nc2ccccc2-n2nccc2C)c2ccc(Nc3cncnc3)cc12 [US10660876, Cmpd No. 30] | in the range around 5.5 µM |
| CC(=O)c1cn(CC(=O)N2C[C@H](F)C[C@H]2C(=O)Nc2ccccc2-c2nc3ccccc3s2)c2ccc(Nc3cncnc3)cc12 [US10660876, Cmpd No. 32] | > 10 µM |
| CC(=O)c1cn(CC(=O)N2C[C@H](F)C[C@H]2C(=O)Nc2nnc(-c3ccccc3Cl)s2)c2ccc(Nc3cncnc3)cc12 [US10660876, Cmpd No. 34] | in the range around 5.5 µM |
| CC(=O)c1cn(CC(=O)N2C[C@H](F)C[C@H]2C(=O)N[C@H]2CCCC[C@@H]2O)c2ccc(Nc3cncnc3)cc12 [US10660876, Cmpd No. 36] | in the range around 5.5 µM |
| CC(=O)c1cn(CC(=O)N2C[C@H](F)C[C@H]2C(=O)Nc2cccc(Cl)c2-n2cncn2)c2ccc(Nc3cncnc3)cc12 [US10660876, Cmpd No. 37] | in the range around 5.5 µM |
| CC(=O)c1cn(CC(=O)N2C[C@H](F)C[C@H]2C(=O)Nc2ccccc2N2CCOC2=O)c2ccc(Nc3cncnc3)cc12 [US10660876, Cmpd No. 40] | in the range around 5.5 µM |
| CC(=O)c1cn(CC(=O)N2C[C@H](F)C[C@H]2C(=O)Nc2nc(-c3c(C)nc4sccn34)cs2)c2ccc(Nc3cncnc3)cc12 [US10660876, Cmpd No. 49] | in the range around 5.5 µM |
| CC(=O)c1cn(CC(=O)N2C[C@H](F)C[C@H]2C(=O)NC2CCc3c(F)ccc(F)c32)c2ccc(Nc3cncnc3)cc12 (some centres undefined) [US10660876, Cmpd No. 51] | in the range around 5.5 µM |
| CC(=O)c1cn(CC(=O)N2C[C@H](F)C[C@H]2C(=O)Nc2ccc(CN)cc2)c2ccc(Nc3cncnc3)cc12 [US10660876, Cmpd No. 53] | in the range around 5.5 µM |
| COc1cc(C)cc2c1OCCC2NC(=O)[C@@H]1C[C@@H](F)CN1C(=O)Cn1cc(C(C)=O)c2cc(Nc3cncnc3)ccc21 (some centres undefined) [US10660876, Cmpd No. 54] | in the range around 5.5 µM |
| CC(=O)c1cn(CC(=O)N2C[C@H](F)C[C@H]2C(=O)Nc2c[nH]nc2-c2ccc(Cl)cc2Cl)c2ccc(Nc3cncnc3)cc12 [US10660876, Cmpd No. 55] | in the range around 5.5 µM |
